In US8785147B2, “L-threonine analysis method and L-threonine dehydrogenase” (Toyama Prefecture, priority 2010, dated 2014):
Like-named read-outs stand apart in the source and are kept apart here.

Columns and labels:
[1] = tested on: TDH derived from Cupriavidus necator NBRC 102504 (SEQ ID NO: 1) (CnTDH); assay: Substrate specificity of TDH, standard assay; type: biochemical
Procedure: L-threonine oxidation activity was determined by measuring coenzyme NAD^+ reduction at 30° C. and 340 nm. The reaction composition consisted of a total volume of 1 mL and contained L-threonine (final concentration 10 mM), NAD^+ (final concentration 2.5 mM), and glycine-KCl—KOH buffer (100 mM, pH 10.0). The measurement of activity began with the addition of the enzyme. One unit (U) of enzymatic activity was defined as the amount of enzyme producing 1 μmol of NADH per minute under standard conditions.
TDH was examined using substrates in the form of various L-amino acids, amino alcohols, and alcohols. […]

[2] = biological target: PfTDH: TDH from Pyrococcus furiosus (Pyrococcus furiosus, UniProt Q8U259); conditions: cited from earlier work
[3] = tested on: CsTDH: TDH from Clostridium sticklandii; conditions: cited from earlier work
[4] = tested on: CyTDH: TDH from Cytophaga sp. KUC-1; conditions: cited from earlier work
[5] = tested on: Purified TDH derived from Cupriavidus necator NBRC 102504; assay: Effect of metal ions and inhibitors on TDH activity (residual activity); type: biochemical
[6] = substrate concentration 10 mM, standard assay conditions, L-threonine = 100
[7] = substrate specificity, L-threonine = 100
[8] = inhibitors final concentration 10 mM, 30° C. for 1 hour
[9] = inhibitors final concentration 10 mM, 30° C. for 1 hour, None = 100
[10] = metal ions final concentration 1 mM, 30° C. for 1 hour, relative to enzyme without additives

Sequence of PfTDH: TDH from Pyrococcus furiosus (Q8U259 whole entry): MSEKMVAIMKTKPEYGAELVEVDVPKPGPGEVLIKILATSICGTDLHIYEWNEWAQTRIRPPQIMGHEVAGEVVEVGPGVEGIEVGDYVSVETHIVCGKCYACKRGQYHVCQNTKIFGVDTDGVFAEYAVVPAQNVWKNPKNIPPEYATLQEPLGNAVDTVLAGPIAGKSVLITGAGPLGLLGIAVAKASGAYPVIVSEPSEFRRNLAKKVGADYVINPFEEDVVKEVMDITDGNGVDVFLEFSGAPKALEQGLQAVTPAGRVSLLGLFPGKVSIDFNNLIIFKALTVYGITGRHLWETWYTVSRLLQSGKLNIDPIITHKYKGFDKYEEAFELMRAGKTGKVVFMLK

OCC(O)CO [Glycerol]
Relative activity (%) CnTDH [1, 6]: 0% | Relative activity (%) PfTDH [2, 7]: 4%

N=C(N)NCCC[C@H](N)C(=O)O [L-arginine]
Relative activity (%) CnTDH [1]: 0% | Relative activity (%) CsTDH [3]: 0% | Relative activity (%) PfTDH [2]: 0% | Relative activity (%) CyTDH [4]: 0%

NC(=O)CI [Iodoacetamide]
Inhibition of TDH activity (in words) [5, 8]: inhibited | Relative activity (%) (residual TDH activity) [5, 9]: 0.8%

N[C@@H](CC(=O)O)C(=O)O [L-aspartic acid]
Relative activity (%) CnTDH [1, 6]: 0% | Relative activity (%) CsTDH [3, 7]: 0% | Relative activity (%) PfTDH [2, 7]: 0% | Relative activity (%) CyTDH [4, 7]: 0%

[Cl][Cr]([Cl])[Cl] [CrCl3]
Relative activity (residual TDH activity) [5, 10]: 110%

[Cl][Ni][Cl] [NiCl2]
Relative activity (residual TDH activity) [5, 10]: 119%

C[C@H](N)C(=O)O [L-alanine]
Relative activity (%) CnTDH [1, 6]: 0% | Relative activity (%) CsTDH [3, 7]: 0% | Relative activity (%) PfTDH [2, 7]: 0% | Relative activity (%) CyTDH [4, 7]: 0%

[Cl][Al]([Cl])[Cl] [AlCl3]
Relative activity (residual TDH activity) [5, 10]: 118%

[Na+].[Na+].[O]=[Mo](=[O])([O-])[O-] [NaMoO4]
Relative activity (residual TDH activity) [5, 10]: 113%

O=S(=O)([O-])[O-].[Mn+2] [MnSO4]
Relative activity (residual TDH activity) [5, 10]: 114%

[Ba+2].[Cl-].[Cl-] [BaCl2]
Relative activity (residual TDH activity) [5, 10]: 113%

CCC(C)O (stereo not shown) [2-Butanol]
Relative activity (%) CnTDH [1, 6]: 0% | Relative activity (%) PfTDH [2]: 0% | Relative activity (%) CyTDH [4, 7]: 0%

NCCCC[C@H](N)C(=O)O [L-lysine]
Relative activity (%) CnTDH [1, 6]: 0% | Relative activity (%) CsTDH [3, 7]: 0% | Relative activity (%) PfTDH [2, 7]: 0% | Relative activity (%) CyTDH [4, 7]: 0%

Calcium pantothenate
Inhibition of TDH activity (in words) [5, 8]: slight inhibiting | Relative activity (%) (residual TDH activity) [5, 9]: 95.0%

CCOC(=O)OC(=O)OCC [DEPC]
Relative activity (%) (residual TDH activity) [5, 9]: 92%

CoCl2
Relative activity (residual TDH activity) [5]: 115%

CC(O)C(C)O (stereo not shown) [2,3-Butanediol]
Relative activity (%) CnTDH [1, 6]: 0% | Relative activity (%) PfTDH [2, 7]: 94%

NCCC[C@H](N)C(=O)O [L-ornithine]
Relative activity (%) CnTDH [1, 6]: 0% | Relative activity (%) PfTDH [2]: 0%

[Cl][Mn][Cl] [MnCl2]
Relative activity (residual TDH activity) [5, 10]: 102%

NC(=O)c1ccc[n+]([C@@H]2O[C@H](COP(=O)([O-])OP(=O)(O)OC[C@H]3O[C@@H](n4cnc5c(N)ncnc54)[C@H](OP(=O)(O)O)[C@@H]3O)[C@@H](O)[C@H]2O)c1 [NADP^+]
Activity of the enzyme with the coenzyme (in words) ([1]; as coenzyme): No activity of the enzyme was observed

[Cl-].[Li+] [LiCl]
Relative activity (residual TDH activity) [5, 10]: 109%

[Cl][Fe]([Cl])[Cl] [FeCl3]
Relative activity (residual TDH activity) [5, 10]: 27%

CCN1C(=O)C=CC1=O [NEM]
Inhibition of TDH activity (in words) [5, 8]: inhibited | Relative activity (%) (residual TDH activity) [5, 9]: 0.0%

O=S(=O)([O-])[O-].[Cu+2] [CuSO4]
Relative activity (residual TDH activity) [5, 10]: 115%

[Ca+2].[Cl-].[Cl-] [CaCl2]
Relative activity (residual TDH activity) [5, 10]: 109%

O=C(O)[C@@H]1CCCN1 [L-proline]
Relative activity (%) CnTDH [1, 6]: 0% | Relative activity (%) CsTDH [3, 7]: 0% | Relative activity (%) PfTDH [2]: 0% | Relative activity (%) CyTDH [4, 7]: 0%

O=[N+]([O-])[O-].[Ag+] [AgNO3]
Relative activity (residual TDH activity) [5, 10]: 100%

NC(=O)CC[C@H](N)C(=O)O [L-glutamine]
Relative activity (%) CnTDH [1, 6]: 0% | Relative activity (%) CsTDH [3, 7]: 0% | Relative activity (%) PfTDH [2, 7]: 0% | Relative activity (%) CyTDH [4, 7]: 0%

[Cl][Fe][Cl] [FeCl2]
Relative activity (residual TDH activity) [5, 10]: 68%

O=S(=O)([O-])[O-].[Mg+2] [MgSO4]
Relative activity (residual TDH activity) [5, 10]: 112%

O=C(O)CI [Iodoacetic acid]
Relative activity (%) (residual TDH activity) [5]: 48%

[Cl][Cu][Cl] [CuCl2]
Relative activity (residual TDH activity) [5, 10]: 117%

CCCCO [1-Butanol]
Relative activity (%) CnTDH [1, 6]: 0% | Relative activity (%) PfTDH [2]: 0%

NCCS(=O)(=O)O [Taurine]
Relative activity (%) CnTDH [1, 6]: 0%
